Laboratory results from patent US11578069B2, “Compounds for inhibition of α4 β7 integrin” (Gilead Sciences, Inc., priority 2019, dated 2023).

Key:
α4β7 integrin = biological target: T1, α4β7 integrin (Homo sapiens, UniProt P13612+P26010); assay: α4β7 Integrin Cell Capture Assay; type: cell-based; details: capture of α4β7 integrin expressing RPM18866 cells on MadCAM-1 extracellular domain-coated plate
T1 construct: monitoring the capture of α4β7 integrin expressing cells; endogenous in cells; host or cells: RPMI8866
T1 sequence (P13612 34-1032): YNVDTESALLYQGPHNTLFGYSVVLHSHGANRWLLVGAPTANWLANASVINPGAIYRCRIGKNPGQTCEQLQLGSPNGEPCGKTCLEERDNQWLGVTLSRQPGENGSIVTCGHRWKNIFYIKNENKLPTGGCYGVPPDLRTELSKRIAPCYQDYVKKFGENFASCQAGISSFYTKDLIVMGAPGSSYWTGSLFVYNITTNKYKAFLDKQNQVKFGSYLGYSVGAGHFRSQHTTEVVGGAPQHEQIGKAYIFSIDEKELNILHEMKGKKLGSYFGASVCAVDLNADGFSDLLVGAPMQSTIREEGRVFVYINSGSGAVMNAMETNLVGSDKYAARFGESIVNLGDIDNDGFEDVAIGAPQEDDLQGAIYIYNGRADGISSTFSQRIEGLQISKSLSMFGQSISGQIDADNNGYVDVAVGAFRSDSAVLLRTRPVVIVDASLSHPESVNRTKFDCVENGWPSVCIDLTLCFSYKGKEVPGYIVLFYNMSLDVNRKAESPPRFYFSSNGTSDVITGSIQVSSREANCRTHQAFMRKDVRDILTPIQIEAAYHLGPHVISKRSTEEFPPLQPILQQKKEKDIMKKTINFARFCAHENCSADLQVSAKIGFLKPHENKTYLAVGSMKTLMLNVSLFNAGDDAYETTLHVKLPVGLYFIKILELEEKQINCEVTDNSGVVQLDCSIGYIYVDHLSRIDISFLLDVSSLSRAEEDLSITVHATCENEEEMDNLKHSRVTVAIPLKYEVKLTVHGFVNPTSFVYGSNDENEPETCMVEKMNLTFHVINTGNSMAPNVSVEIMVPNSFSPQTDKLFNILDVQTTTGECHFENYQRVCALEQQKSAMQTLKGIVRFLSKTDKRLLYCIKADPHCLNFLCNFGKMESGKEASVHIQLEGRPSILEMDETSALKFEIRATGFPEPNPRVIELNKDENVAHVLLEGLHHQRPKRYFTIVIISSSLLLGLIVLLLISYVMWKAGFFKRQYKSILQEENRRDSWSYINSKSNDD
T1 sequence (P26010 20-798): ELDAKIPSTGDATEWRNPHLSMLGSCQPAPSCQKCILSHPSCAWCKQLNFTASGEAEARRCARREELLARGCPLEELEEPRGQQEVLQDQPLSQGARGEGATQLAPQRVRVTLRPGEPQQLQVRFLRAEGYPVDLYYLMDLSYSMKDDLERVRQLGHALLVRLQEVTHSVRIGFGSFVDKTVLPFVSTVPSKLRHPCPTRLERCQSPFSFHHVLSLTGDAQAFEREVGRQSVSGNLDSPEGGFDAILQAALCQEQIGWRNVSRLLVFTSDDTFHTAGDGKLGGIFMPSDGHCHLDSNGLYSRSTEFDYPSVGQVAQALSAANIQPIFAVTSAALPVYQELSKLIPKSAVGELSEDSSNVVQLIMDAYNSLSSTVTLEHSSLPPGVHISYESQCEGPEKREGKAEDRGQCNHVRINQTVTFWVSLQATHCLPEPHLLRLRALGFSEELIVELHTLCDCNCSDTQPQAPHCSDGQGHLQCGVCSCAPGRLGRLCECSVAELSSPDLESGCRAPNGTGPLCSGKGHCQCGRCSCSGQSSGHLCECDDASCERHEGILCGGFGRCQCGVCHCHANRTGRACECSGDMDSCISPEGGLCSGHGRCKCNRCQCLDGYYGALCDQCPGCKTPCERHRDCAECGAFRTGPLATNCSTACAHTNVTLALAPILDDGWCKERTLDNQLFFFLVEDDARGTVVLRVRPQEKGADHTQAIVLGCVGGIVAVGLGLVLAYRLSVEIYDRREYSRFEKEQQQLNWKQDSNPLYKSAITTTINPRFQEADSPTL
Description: The potency of inhibitors in preventing α4β7 integrin interaction with MadCAM-1 was measured by monitoring the capture of α4β7 integrin expressing cells on a recombinant MadCAM-1 extracellular domain-coated plate.
384-well plates (Corning 3702) were coated with MadCAM-1 extracellular domain by dispensing 20 μL of MAdCAM-1 at 1.0 μg/mL per well and incubating overnight at 4° C. The plates were then washed with PBS and blocked with 3% BSA for 2 hours before being washed again.
(§1) RPM18866 cells were spun down and re-suspended in assay medium (DMEM+0.5% FBS+0.5 mM MnCl2) at a density of 0.5×10^6 cells/mL. The cells were then dispensed (60 μL/well) to a 384-well plate (Greiner 781280) that was previously spotted with 60 nL of test compound per well. The plates were incubated at 37° C. for 1 hour. 50 μL of cells were transferred to the blocked, MadCAM-1-coated plates and incubated for 30 minutes at 37° C. 10 μL of 12% glutaraldehyde containing Hoechst 33342 (0.06 mg/mL) was added to the cells (2% glutaraldehyde and 0.01 mg/mL final concentrations). The plates were incubated for 90 minutes at room temperature. The plates were then washed 3 times with 70 μL of PBS per well and imaged on a Cellomics ArrayScan instrument. The cells that were bound to the plate were counted and plotted against the compound concentration to determine the EC50 of the test compounds.

α4β1 integrin = biological target: T2, α4β1 integrin (Homo sapiens, UniProt P05556+P13612); assay: α4β1 Cell Capture Assay; type: cell-based; details: capture of α4β1 expressing Jurkat cells on VCAM-1 extracellular domain-coated plate
T2 construct: monitoring the capture of α4β1 expressing cells; endogenous in cells; host or cells: Jurkat
Description: The potency of inhibitors in preventing α4β1 integrin interaction with VCAM-1 was measured by monitoring the capture of α4β1 expressing cells to a recombinant VCAM-1 extracellular domain-coated plate.
384-well plates (Corning 3702) were coated with VCAM-1 extracellular domain by dispensing 20 μL of VCAM-1 at 0.5 μg/ml per well and incubating overnight at 4° C. The plates were then washed with PBS and blocked with 3% BSA for 2 hours before being washed again.
as §1, with “Jurkat cells” for “RPM18866 cells”, “0.5×10^6 cells/ml.” for “0.5×10^6 cells/mL.”, “blocked, VCAM-1-coated” for “blocked, MadCAM-1-coated”, “10 μl” for “10 μL”, “0.01 mg/ml Hoechst 33342” for “0.01 mg/mL”

T2 sequence (P05556 21-798, one chain of several): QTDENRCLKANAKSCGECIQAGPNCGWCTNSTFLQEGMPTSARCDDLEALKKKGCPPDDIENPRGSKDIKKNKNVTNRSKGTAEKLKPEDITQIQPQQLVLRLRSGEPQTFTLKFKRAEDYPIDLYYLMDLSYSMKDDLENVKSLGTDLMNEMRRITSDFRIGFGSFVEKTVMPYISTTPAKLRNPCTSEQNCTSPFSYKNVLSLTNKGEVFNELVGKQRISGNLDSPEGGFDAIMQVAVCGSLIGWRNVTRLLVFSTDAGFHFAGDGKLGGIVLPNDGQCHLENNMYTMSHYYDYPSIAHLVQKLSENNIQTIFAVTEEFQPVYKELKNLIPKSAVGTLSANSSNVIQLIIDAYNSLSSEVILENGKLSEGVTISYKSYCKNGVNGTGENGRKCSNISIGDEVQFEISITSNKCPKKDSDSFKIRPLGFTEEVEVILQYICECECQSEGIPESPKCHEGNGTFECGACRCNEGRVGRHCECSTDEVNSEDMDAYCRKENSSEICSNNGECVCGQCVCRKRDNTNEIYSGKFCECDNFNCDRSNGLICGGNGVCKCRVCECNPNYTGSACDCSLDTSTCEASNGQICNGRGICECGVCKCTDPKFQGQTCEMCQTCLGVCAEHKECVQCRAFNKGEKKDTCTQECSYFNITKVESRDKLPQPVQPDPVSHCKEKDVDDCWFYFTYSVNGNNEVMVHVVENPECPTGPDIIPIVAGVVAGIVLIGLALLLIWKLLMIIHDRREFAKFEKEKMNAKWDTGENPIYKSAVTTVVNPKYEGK

| SMILES | EC50 (α4β7 integrin; Table 2) | EC50 (α4β1 integrin; Table 2) | EC50 (α4β7 integrin; Table 1) | EC50 (α4β1 integrin; Table 1) |
| --- | --- | --- | --- | --- |
| CC[C@@H](Nc1cc(F)c(C(=O)N[C@@H](Cc2ccc(-n3c(=O)c4cc(N(C)C)ccc4n(C)c3=O)cc2)C(=O)O)c(F)c1)C(F)(F)F [Example 33] | 2.5 nM | 105 nM | – | – |
| CC[C@@H](Nc1cc(F)c(C(=O)N[C@@H](Cc2ccc(-n3c(=O)cc(C)n(C)c3=O)nc2)C(=O)O)c(F)c1)C(F)(F)F [Example 43] | 15.9 nM | 661 nM | – | – |
| Cc1cc(C[C@H](NC(=O)c2c(C)cc(N3CCOC[C@@H]3C(F)(F)F)cc2F)C(=O)O)ccc1-c1c(C)nc(C)n(C)c1=O [Example 40] | 0.3 nM | 7.7 nM | – | – |
| Cc1cc(N2CCOC[C@@H]2C(F)(F)F)cc(F)c1C(=O)N[C@@H](Cc1ccc(-n2c(=O)c3ccncc3n(C)c2=O)c(C(F)(F)F)c1)C(=O)O (atropisomer, axis not shown) [Example 89] | 0.6 nM | 2.3 nM | – | – |
| Cc1cc(C[C@H](NC(=O)c2c(F)cc(N3CCOC[C@@H]3C(F)(F)F)cc2F)C(=O)O)ccc1-c1c(C(F)(F)F)cc(C)n(C)c1=O [Example 29] | 0.6 nM | 29 nM | – | – |
| Cc1cc(N2CCOC[C@@H]2C(F)(F)F)cc(F)c1C(=O)N[C@@H](Cc1ccc(-n2c(=O)c3ccncc3n(C)c2=O)cn1)C(=O)O [Example 23, (S)-2-(2-fluoro-6-methyl-4-((R)-3-(trifluoromethyl)morpholino)benzamido)-3-(5-(1-methyl-2,4-dioxo-1,4-dihydropyrido[3,4-d]pyrimidin-3(2H)-yl)pyridin-2-yl)propanoic acid] | – | – | 0.2 nM | 9.8 nM |
| Cc1cc(N2CCOC[C@H]2CC(F)(F)F)cc(F)c1C(=O)N[C@@H](Cc1ccc(-n2c(=O)c3ccncc3n(C)c2=O)nc1)C(=O)O [Example 86] | 4.2 nM | 46.1 nM | – | – |
| Cc1cc(N2CCOC[C@@H]2C(F)(F)F)cc(F)c1C(=O)N[C@@H](Cc1ccc(-n2c(=O)c3c(n(C)c2=O)CCC3)cc1)C(=O)O [Example 64, (S)-2-(2-fluoro-6-methyl-4-((R)-3-(trifluoromethyl)morpholino)benzamido)-3-(4-(1-methyl-2,4-dioxo-1,2,4,5,6,7-hexahydro-3H-cyclopenta[d]pyrimidin-3-yl)phenyl)propanoic acid] | – | – | 0.1 nM | 1.8 nM |
| Cc1cc(N2CCOC[C@@H]2CC(F)(F)F)cc(F)c1C(=O)N[C@@H](Cc1ccc(-n2c(=O)c3ccncc3n(C)c2=O)nc1)C(=O)O [Example 87] | 0.9 nM | 19.7 nM | – | – |
| Cn1c(=O)n(-c2ccc(C[C@H](NC(=O)c3c(F)cc(N4CCOC[C@@H]4C(F)(F)F)cc3F)C(=O)O)cn2)c(=O)c2ccncc21 [Example 13, (S)-2-(2,6-difluoro-4-((R)-3-(trifluoromethyl)morpholino)benzamido)-3-(6-(1-methyl-2,4-dioxo-1,4-dihydropyrido[3,4-d]pyrimidin-3(2H)-yl)pyridin-3-yl)propanoic acid] | – | – | 0.8 nM | 38.9 nM |
| Cc1nc(-c2ccc(C[C@H](NC(=O)c3c(F)cc(N4CCOC[C@@H]4C(F)(F)F)cc3F)C(=O)O)cc2)c(=O)n(C)c1C [Example 38] | 4.9 nM | 86.1 nM | – | – |
| Cc1cc(N2CCOC[C@@H]2C(F)(F)F)cc(F)c1C(=O)N[C@@H](Cc1ccc(-n2c(=O)c3ccncc3n(C)c2=O)c(OC(F)(F)F)c1)C(=O)O (atropisomer, axis not shown) [Example 92] | 0.2 nM | 1.3 nM | – | – |
| Cn1c(=O)n(-c2ccc(C[C@H](NC(=O)c3c(F)cc(N4CCOC[C@@H]4C(F)(F)F)cc3Cl)C(=O)O)cn2)c(=O)c2ccncc21 [Example 55, (S)-2-(2-chloro-6-fluoro-4-((R)-3-(trifluoromethyl)morpholino)benzamido)-3-(6-(1-methyl-2,4-dioxo-1,4-dihydropyrido[3,4-d]pyrimidin-3(2H)-yl)pyridin-3-yl)propanoic acid] | – | – | 0.1 nM | 3.4 nM |
